Measurements: US20240252572A1, “ANTI-INFLAMMATORY AGENT FOR INTESTINAL CELLS OF DOMESTIC ANIMAL” (SDS BIOTECH K.K., priority 2021, published 2024)

System: BIE (bovine intestinal epithelial) cells
Test: Inflammatory cytokine gene expression (RT-PCR) in LPS-stimulated bovine intestinal epithelial cells
Format: cell-based
Details: CNSL 30 ppm, aspirin 10 ppm, single agents
Description: To evaluate the effect of endotoxin stimulated inflammatory reaction in the intestine, CNSL, vitamin K1 (FUJIFILM Wako Pure Chemical Corporation), or a combination thereof was added to bovine intestinal epithelial cells, the cells were cultured, and cytokine gene expression analysis was performed. Aspirin was used as a positive control. • 1. Seeding of BIE Cells • BIE (bovine intestinal epithelial) cells were seeded in a 12-well plate (manufactured by COSTAR) at 3.0×10^4 cells/well, and cultured in a CO2 incubator. • 2. […] A culture supernatant was collected, the wells were then washed with the sterilized PBS, and adherent cells were solubilized with TRIZOL, and harvested (at 9:00 p.m. on Day 5 and at 9:00 a.m. on Day 6) (12 hours or 24 hours) The sample in which TRIZOL (manufactured by INVITROGEN) is dissolved is partially purified by phenol-chloroform extraction and ethanol precipitation, and then dissolved in 10 μL of RNase-free water, and the O.D. (absorbance) of the resultant is measured with NanoDrop (manufactured by Thermo Fisher Scientific K.K.). […]

CC(=O)Oc1ccccc1C(=O)O [aspirin, acetylsalicylic acid]
action of the inflammation mediators, stimulated by endotoxin (LPS): suppress
